Data as given in patent publication US20050101595A1, “N-containing cycloalkyl-substituted amino-thiazole derivatives and pharmaceutical compositions for inhibiting cell proliferation and methods for their use” (PFIZER INC., priority 2003, published 2005).
Structures can show the parent of a compound that is named as a salt. Where two headings read alike, the source gives them in different places.

Columns and labels:
[1] = target: human CDK4 and genetically truncated (1-264) cyclin D3 (Homo sapiens, UniProt P11802); assay: Inhibition of CDK4/Cyclin D Retinoblastoma Kinase Activity; type: biochemical; details: for Ki: apparent Ki, CDK4/truncated cyclin D3, Rb fragment substrate, 25 μM ATP
Sequence of human CDK4 and genetically truncated (1-264) cyclin D3 (P11802 whole entry, the tested form may be a part): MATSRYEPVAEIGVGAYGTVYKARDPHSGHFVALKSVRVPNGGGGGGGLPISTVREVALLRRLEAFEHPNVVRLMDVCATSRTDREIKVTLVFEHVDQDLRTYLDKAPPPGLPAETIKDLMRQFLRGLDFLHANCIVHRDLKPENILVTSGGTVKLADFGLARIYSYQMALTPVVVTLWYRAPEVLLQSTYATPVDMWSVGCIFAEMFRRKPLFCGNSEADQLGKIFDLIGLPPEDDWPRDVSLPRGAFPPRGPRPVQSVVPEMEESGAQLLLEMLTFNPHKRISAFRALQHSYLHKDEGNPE
Sequence of human CDK4 and genetically truncated (1-264) cyclin D3 (P30281 1-264 partner): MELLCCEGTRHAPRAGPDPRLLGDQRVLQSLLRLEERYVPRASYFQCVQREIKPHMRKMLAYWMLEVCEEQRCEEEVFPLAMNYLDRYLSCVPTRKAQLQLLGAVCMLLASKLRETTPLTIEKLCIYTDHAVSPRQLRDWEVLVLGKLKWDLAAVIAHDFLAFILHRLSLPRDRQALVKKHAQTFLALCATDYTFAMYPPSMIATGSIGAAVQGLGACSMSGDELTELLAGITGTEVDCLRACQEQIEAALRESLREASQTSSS
Description: Cyclin-dependent kinase activity was measured by quantifying the enzyme-catalyzed, time-dependent incorporation of radioactive phosphate from [^32P]ATP or [^33P]ATP into a protein substrate. Unless noted otherwise, assays were performed in 96-well plates in a total volume of 50 μL, in the presence of 10 mM HEPES (N-[2-hydroxyethyl]piperazine-N′-[2-ethanesulfonic acid]) (pH 7.4), 10 mM MgCl2, 25 μM adenosine triphosphate (ATP), 1 mg/mL ovalbumin, 5 μg/mL leupeptin, 1 mM dithiothreitol, 10 mM β-glycerophosphate, 0.1 mM sodium vanadate, 1 mM sodium fluoride, 2.5 mM ethylene glycol-bis(β-aminoethyl ether)-N,N,N′N′-tetraacetic acid (EGTA), 2% (v/v) dimethylsulfoxide, and 0.03-0.4 μCi [^32/33P]ATP per reaction. Reactions were initiated with enzyme, incubated at 30° C., and terminated after 20 minutes by the addition of ethylenediaminetetraacetic acid (EDTA) to 250 mM. The phosphorylated substrate was then captured on a nitrocellulose or phosphocellulose membrane using a 96-well filtration manifold, and unincorporated radioactivity was removed by repeated washing with 0.85% phosphoric acid. Radioactivity was quantified by exposing the dried membranes to a phosphorimager.
Inhibition was measured relative to control wells that contained all reaction components including 2% (v/v) DMSO but no compound, after subtraction of background radioactivity measured in the absence of enzyme. Apparent Ki values of discrete compounds were measured by assaying enzyme activity in the presence of different inhibitor compound concentrations and subtracting the background radioactivity measured in the absence of enzyme. The kinetic parameters (kcat, Km for ATP) were measured for each enzyme under the usual assay conditions by determining the dependence of initial rates on ATP concentration. Inhibition data were fit to an equation for competitive inhibition using Kaleidagraph (Synergy Software), or were fit to an equation for competitive tight-binding inhibition using the software KineTic (BioKin, Ltd.).
Inhibition of CDK4/Cyclin D Retinoblastoma Kinase Activity:
A complex of human CDK4 and genetically truncated (1-264) cyclin D3 was purified using traditional biochemical chromatographic techniques from insect cells that had been co-infected with the corresponding baculovirus expression vectors (see e.g., Meijer and Kim, “Chemical Inhibitors of Cyclin-Dependent Kinases,” Methods in Enzymol,. vol. 283 (1997), pp. 113-128.). The enzyme complex (5 nM) was assayed with 0.3-0.5 μg of purified recombinant retinoblastoma protein fragment (Rb) as a substrate. The engineered Rb fragment (residues 386-928 of the native retinoblastoma protein; 62.3 kDa) contains the majority of the phosphorylation sites found in the native 106-kDa protein, as well as a tag of six histidine residues for ease of purification. Phosphorylated Rb substrate was captured by microfiltration on a nitrocellulose membrane and quantified using a phosphorimager as described above. For measurement of tight-binding inhibitors, the assay duration was extended to 60 minutes, during which the time-dependence of product formation was linear and initial rate conditions were met.

CDK2/Cyclin A = CDK2/Cyclin A (Homo sapiens, UniProt P24941); assay: Inhibition of CDK2/Cyclin A Retinoblastoma Kinase Activity; type: biochemical; details: for Ki: apparent Ki, CDK2/proteolyzed cyclin A, Rb fragment substrate, 25 μM ATP
Method in brief: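 Baculovirus-expressed CDK2 complexed with proteolyzed cyclin A (10 or 19 nM), Rb fragment substrate, 25 μM [32P/33P]ATP, HEPES pH 7.4, 30 °C for 60 or 75 min under initial-rate conditions. Filter capture and phosphorimager readout; apparent Ki fitted to competitive or tight-binding competitive inhibition.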

HCT-116 cell line = assay: Inhibition of cell growth, tetrazolium salt (MTT) assay; type: cell-based; details: for IC50: Homo sapiens, HCT-116, 120 h, MTT, three to five days
Method in brief: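 MTT colorimetric viability: three-to-five-day compound exposure in 0.5% (v/v) DMSO at 37° C, MTT 0.2 mg/mL for the last 4 h, A540 compared with vehicle-treated cells.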

[2] = first HCT-116 column (c4), read-out: HCT-116 IC50
[3] = second HCT-116 column (c5), read-out: HCT-116 IC50

Row | Ki [1] | Ki (CDK2/Cyclin A) | IC50 (HCT-116 cell line; [2]) | IC50 (HCT-116 cell line; [3]) | SMILES | further results
1 | 1.1 nM | 2.6 nM | 190 nM | 1300 nM | Nc1nc(NC2CCN(S(=O)(=O)CCCN3CCC4CCCCC4C3)CC2)sc1C(=O)c1c(F)cccc1F (mixture of isomers) [Example K10, 1-(4-Amino-2-{1-[3-([cis/trans]-octahydro-1H-isoquinolin-2-yl)propane-1-sulfonyl]-piperidin-4-ylamino}-thiazol-5-yl)-1-(2,6-difluoro-phenyl)-methanone.] | 
2 | 2.1 nM | 13 nM | 190 nM | 800 nM | CC1CCC(C)N1CCS(=O)(=O)N1CCC(Nc2nc(N)c(C(=O)c3c(F)cccc3F)s2)CC1 (mixture of isomers) [Example K26, (4-Amino-2-{1-[2-(cis/trans-2,5-dimethyl-pyrrolidin-1-yl)-ethanesulfonyl]-piperidin-4-ylamino}-thiazol-5-yl)-(2,6-difluoro-phenyl)-methanone Trifluoroacetic Acid Salt.] | 
3 | 3.5 nM | 11 nM | 230 nM | 800 nM | CC1C=CC(C)N1CCS(=O)(=O)N1CCC(Nc2nc(N)c(C(=O)c3c(F)cccc3F)s2)CC1 (mixture of isomers) [Example K27, (4-Amino-2-{1-[2-(cis/trans-2,5-dimethyl-2,5-dihydro-pyrrol-1-yl)-ethanesulfonyl]-piperidin-4-ylamino}-thiazol-5-yl)-(2,6-difluoro-phenyl)-methanone Trifluoroacetic Acid Salt.] | 
4 | 2.1 nM | 0.51 nM | 66 nM | 280 nM | CC1CCC(NCCS(=O)(=O)N2CCC(Nc3nc(N)c(C(=O)c4c(F)cccc4F)s3)CC2)CC1 (mixture of isomers) [Example K40, (4-Amino-2-{1-[2-(4(cis/trans)-methyl-cyclohexylamino)-ethanesulfonyl]-piperidin-4-ylamino}-thiazol-5-yl)-(2,6-difluoro-phenyl)-methanone] | 
5 | 2.4 nM | 0.57 nM | 51 nM | 300 nM | CC1CCCC(NCCS(=O)(=O)N2CCC(Nc3nc(N)c(C(=O)c4c(F)cccc4F)s3)CC2)C1 (mixture of isomers) [Example K43, (4-Amino-2-{1-[2-(3(cis/trans)-methyl-cyclohexylamino)-ethanesulfonyl]-piperidin-4-ylamino}-thiazol-5-yl)-(2,6-difluoro-phenyl)-methanone] | 
6 | 0.65 nM | 1.1 nM | 90 nM | 400 nM | CC(CN(C)C)Oc1ccc(S(=O)(=O)N2CCC(Nc3nc(N)c(C(=O)c4c(F)cccc4F)s3)CC2)cn1 (racemic) [Example H13, 1-(4-Amino-2-{1-[6-(2-dimethylamino-1RS-methyl-ethoxy)-pyridine-3-sulfonyl]-piperidin-4-ylamino}-thiazol-5-yl)-1-(2,6-fifluoro-phenyl)-methanone Dihydrochloride] | 
7 |  |  |  |  | Nc1nc(NC2CCN(C(=O)[C@@H]3C[C@H]3c3ccccc3)CC2)sc1C(=O)c1c(F)cccc1F (relative stereo) [Example Q55] | CDK4 % Inhibition at 0.03 μM ([1]; 0.03 μM compound, Table 4): 43%; CDK2 % Inhibition at 0.03 μM (CDK2/Cyclin A; 0.03 μM compound, Table 4): 29%; HCT-116 % Inhibition at 0.1 μM (HCT-116 cell line; 0.1 μM compound, HCT-116, Table 4): 10%; HCT-116 % Inhibition at 0.25 μM (HCT-116 cell line; 0.25 μM compound, HCT-116, Table 4): 31%
8 |  |  |  |  | Nc1nc(NC2CCN(C(=O)[C@@H]3C[C@H]3c3ccccc3)CC2)sc1C(=O)c1c(F)cccc1F (relative stereo) [Example R92] | CDK4 % Inhibition at 0.03 μM ([1]; at 0.03 μM): −2%; CDK2 % Inhibition at 0.03 μM (CDK2/Cyclin A; at 0.03 μM): −9%; HCT-116 % Inhibition at 0.1 μM (HCT-116 cell line; HCT-116 cells, at 0.1 μM): 0%; HCT-116 5 Inhibition at 0.25 μM (HCT-116 cell line; HCT-116 cells, at 0.25 μM): 40
9 | 0.7 nM | 1.1 nM | 48 nM | > 500 nM | CN1CCC[C@@H](COc2ccc(S(=O)(=O)N3CCC(Nc4nc(N)c(C(=O)c5c(F)cccc5F)s4)CC3)cn2)C1 (stereo in doubt) [Example H10, 1-(4-Amino-2-{1-[6-(1-methyl-piperidin-3R-ylmethoxy)-pyridine-3-sulfonyl]-piperidin-4-ylamino}-thiazol-5-yl)-1-(2,6-difluoro-phenyl)-methanone] | 
10 | 130 nM | 490 nM | 1700 nM | 3100 nM | Nc1nc(NC2CCN(Cc3ccccc3)CC2)sc1C(=O)c1c(F)cccc1F [Example A3, 1-[4-Amino-2-(1-benzyl-piperidin-4-ylamino)-thiazol-5-yl]-1-(2,6-difluoro-phenyl)-methanone] | 
11 | 930 nM | 12000 nM | 1700 nM | 3800 nM | CN1CCC(Nc2nc(N)c(C(=O)c3c(F)cccc3F)s2)CC1 [Example A4, 1-[4-Amino-2-(1-methyl-piperidin-4-ylamino)-thiazol-5-yl]-1-(2,6-difluoro-phenyl)-methanone] | 
12 | > 2000 nM | > 2000 nM | > 5000 nM | > 5000 nM | Nc1nc(NC2CN(C(c3ccccc3)c3ccccc3)C2)sc1C(=O)c1c(F)cccc1F [Example A14, [4-Amino-2-(1-benzhydryl-azetidin-3-ylamino)-thiazol-5-yl]-(2,6-difluoro-phenyl)-methanone] | 
13 | 110 nM | 28 nM | 350 nM | 950 nM | CN(C)c1ccc(NC(=O)N2CCC(Nc3nc(N)c(C(=O)c4c(F)cccc4F)s3)CC2)cc1 [Example B2, 4-[4-Amino-5-(2,6-difluoro-benzoyl)-thiazol-2-ylamino]-piperidine-1-carboxylic Acid (4-Dimethylamino-phenyl)-amide] | 
14 | 11 nM | 68 nM | 1200 nM | 2300 nM | Nc1nc(NC2CCN(C(=O)c3ccc(I)cc3)CC2)sc1C(=O)c1c(F)cccc1F [Example C1, {4-Amino-2-[1-(4-iodo-benzoyl)-piperidin-4-ylamino]-thiazol-5-yl}-(2,6-difluoro-phenyl)-methanone] | 
15 | 9.6 nM | 65 nM | 770 nM | 1900 nM | COc1ccc(C(=O)N2CCC(Nc3nc(N)c(C(=O)c4c(F)cccc4F)s3)CC2)cc1 [Example C2, {4-Amino-2-[1-(4-methoxy-benzoyl)-piperidin-4-ylamino]-thiazol-5-yl}-(2,6-difluoro-phenyl)-methanone] | 
16 | 11 nM | 81 nM | 800 nM | 2000 nM | COC(=O)c1ccc(C(=O)N2CCC(Nc3nc(N)c(C(=O)c4c(F)cccc4F)s3)CC2)cc1 [Example C4, 4-{4-[4-Amino-5-(2,6-difluoro-benzoyl)-thiazol-2-ylamino]-piperidine-1-carbonyl}-benzoic Acid Methyl Ester] | 

Row | SMILES | Ki [1] | Ki (CDK2/Cyclin A) | IC50 (HCT-116 cell line; [2]) | IC50 (HCT-116 cell line; [3]) | further results
17 | Nc1nc(NC2CCN(C(=O)Oc3ccc(Cl)cc3)CC2)sc1C(=O)c1c(F)cccc1F [Example C3, 4-[4-Amino-5-(2,6-difluoro-benzoyl)-thiazol-2-ylamino]-piperidine-1-carboxylic Acid 4-Chloro-phenyl Ester] | 3.7 nM | 17 nM |  |  | IC50 (HCT-116 cell line; read-out: HCT-116 IC50, first HCT-116 column (c4)): 330 nM; IC50 (HCT-116 cell line; read-out: HCT-116 IC50, second HCT-116 column (c5)): 1200 nM
